From paper PMC12372887, “Mechanism and cellular actions of the potent AMPK inhibitor BAY-3827” (Science Advances, 2025)

Assays:
Assay in all cases: Kinase panel (140 human kinases)
Format in all cases: biochemical
MAP4K5 = MAP4K5 (Homo sapiens, UniProt Q9Y4K4)
Procedure: (§1) BAY-3827 and BAY-974 were assayed against a 140-human kinase panel at 0.1 μM and at 1 μM (BAY-3827) concentration in a [γ-^33P] ATP–based radioactive filter binding assay ([31], [65]) setup in duplicates with reported mean remaining kinase percentage activity alongside SD (table S1). Assays were performed at either 5, 20, or 50 μM ATP to be at or below the Michaelis constant for ATP for each enzyme and conducted by the services offered by the International Centre for Kinase Profiling at MRC Protein Phosphorylation and Ubiquitylation Unit, University of Dundee (https://www.kinase-screen.mrc.ac.uk/services/premier-screen).

JAK3 = JAK3 (Homo sapiens, UniProt P52333)
Procedure: as §1

EIF2AK3 = EIF2AK3 (Homo sapiens, UniProt Q9NZJ5)
Procedure: as §1

ULK2 = ULK2 (Homo sapiens, UniProt Q8IYT8)
Procedure: as §1

p38d MAPK = p38d MAPK (Homo sapiens, UniProt O15264)
Procedure: as §1

OSR1 = OSR1 (Homo sapiens, UniProt O95747)
Procedure: as §1

p38g MAPK = p38g MAPK (Homo sapiens, UniProt P53778)
Procedure: as §1

ERK2 = ERK2 (Homo sapiens, UniProt P28482)
Procedure: as §1

NUAK1 = target: T1, NUAK1 (Homo sapiens, UniProt O60285)
T1 sequence (O60285 1-661): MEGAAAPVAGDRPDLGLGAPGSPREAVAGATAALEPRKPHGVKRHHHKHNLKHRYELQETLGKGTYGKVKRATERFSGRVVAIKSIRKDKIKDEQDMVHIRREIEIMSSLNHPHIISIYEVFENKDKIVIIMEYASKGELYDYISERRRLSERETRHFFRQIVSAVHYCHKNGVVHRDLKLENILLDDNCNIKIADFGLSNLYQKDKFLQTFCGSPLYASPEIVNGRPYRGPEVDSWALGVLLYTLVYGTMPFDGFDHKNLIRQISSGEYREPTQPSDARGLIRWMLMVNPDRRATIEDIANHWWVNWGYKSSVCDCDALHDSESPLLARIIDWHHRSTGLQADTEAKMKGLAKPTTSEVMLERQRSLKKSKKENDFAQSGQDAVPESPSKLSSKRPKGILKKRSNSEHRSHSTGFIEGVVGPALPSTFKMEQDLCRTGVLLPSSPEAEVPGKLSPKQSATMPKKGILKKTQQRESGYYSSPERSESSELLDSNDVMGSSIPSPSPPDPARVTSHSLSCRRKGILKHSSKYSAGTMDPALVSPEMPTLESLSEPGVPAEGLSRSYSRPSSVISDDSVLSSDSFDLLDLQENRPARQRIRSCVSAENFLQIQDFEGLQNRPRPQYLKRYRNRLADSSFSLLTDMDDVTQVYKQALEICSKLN
Procedure: as §1

JNK3 = JNK3 (Homo sapiens, UniProt P53779)
JNK3, sequence (P53779 whole entry): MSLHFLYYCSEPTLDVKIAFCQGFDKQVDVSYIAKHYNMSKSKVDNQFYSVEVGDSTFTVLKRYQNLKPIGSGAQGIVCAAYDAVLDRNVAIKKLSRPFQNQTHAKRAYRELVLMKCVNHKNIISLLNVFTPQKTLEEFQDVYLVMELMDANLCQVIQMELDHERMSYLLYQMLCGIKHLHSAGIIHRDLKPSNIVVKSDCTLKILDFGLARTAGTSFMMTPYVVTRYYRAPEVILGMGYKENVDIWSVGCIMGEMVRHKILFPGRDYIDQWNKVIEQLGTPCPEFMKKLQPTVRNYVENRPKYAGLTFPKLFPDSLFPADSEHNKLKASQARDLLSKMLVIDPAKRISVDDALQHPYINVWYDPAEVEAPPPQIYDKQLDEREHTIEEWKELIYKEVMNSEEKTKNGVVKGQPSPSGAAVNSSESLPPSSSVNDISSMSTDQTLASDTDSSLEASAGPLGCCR
Procedure: as §1

GCK = GCK (Homo sapiens, UniProt Q12851)
GCK, sequence (Q12851 whole entry): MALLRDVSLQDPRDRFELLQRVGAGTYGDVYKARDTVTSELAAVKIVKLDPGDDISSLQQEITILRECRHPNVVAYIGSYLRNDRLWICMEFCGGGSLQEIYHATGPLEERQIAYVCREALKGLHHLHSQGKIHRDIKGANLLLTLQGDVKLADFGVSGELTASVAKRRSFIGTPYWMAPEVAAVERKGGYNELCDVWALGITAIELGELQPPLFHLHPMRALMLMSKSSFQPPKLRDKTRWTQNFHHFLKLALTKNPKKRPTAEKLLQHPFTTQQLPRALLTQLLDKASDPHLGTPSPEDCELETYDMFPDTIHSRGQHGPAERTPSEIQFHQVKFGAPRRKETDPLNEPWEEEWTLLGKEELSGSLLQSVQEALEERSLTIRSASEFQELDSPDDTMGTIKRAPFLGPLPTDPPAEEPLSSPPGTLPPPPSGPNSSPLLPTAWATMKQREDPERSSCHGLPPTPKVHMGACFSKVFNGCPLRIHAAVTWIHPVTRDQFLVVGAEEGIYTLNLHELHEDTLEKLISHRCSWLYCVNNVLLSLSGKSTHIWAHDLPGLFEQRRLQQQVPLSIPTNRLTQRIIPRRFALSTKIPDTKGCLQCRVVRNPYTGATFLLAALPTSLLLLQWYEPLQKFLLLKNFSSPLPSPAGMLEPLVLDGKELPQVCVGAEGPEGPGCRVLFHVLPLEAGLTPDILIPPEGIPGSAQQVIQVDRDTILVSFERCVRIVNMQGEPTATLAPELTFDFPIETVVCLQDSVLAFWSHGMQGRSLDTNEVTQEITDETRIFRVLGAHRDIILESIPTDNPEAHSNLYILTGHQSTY
Procedure: as §1

MARK1 = MARK1 (Homo sapiens, UniProt Q9P0L2)
Procedure: as §1

MAPKAP-K3 = MAPKAP-K3 (Homo sapiens, UniProt Q16644)
Procedure: as §1

DDR2 = DDR2 (Homo sapiens, UniProt Q16832)
DDR2, sequence (Q16832 22-855): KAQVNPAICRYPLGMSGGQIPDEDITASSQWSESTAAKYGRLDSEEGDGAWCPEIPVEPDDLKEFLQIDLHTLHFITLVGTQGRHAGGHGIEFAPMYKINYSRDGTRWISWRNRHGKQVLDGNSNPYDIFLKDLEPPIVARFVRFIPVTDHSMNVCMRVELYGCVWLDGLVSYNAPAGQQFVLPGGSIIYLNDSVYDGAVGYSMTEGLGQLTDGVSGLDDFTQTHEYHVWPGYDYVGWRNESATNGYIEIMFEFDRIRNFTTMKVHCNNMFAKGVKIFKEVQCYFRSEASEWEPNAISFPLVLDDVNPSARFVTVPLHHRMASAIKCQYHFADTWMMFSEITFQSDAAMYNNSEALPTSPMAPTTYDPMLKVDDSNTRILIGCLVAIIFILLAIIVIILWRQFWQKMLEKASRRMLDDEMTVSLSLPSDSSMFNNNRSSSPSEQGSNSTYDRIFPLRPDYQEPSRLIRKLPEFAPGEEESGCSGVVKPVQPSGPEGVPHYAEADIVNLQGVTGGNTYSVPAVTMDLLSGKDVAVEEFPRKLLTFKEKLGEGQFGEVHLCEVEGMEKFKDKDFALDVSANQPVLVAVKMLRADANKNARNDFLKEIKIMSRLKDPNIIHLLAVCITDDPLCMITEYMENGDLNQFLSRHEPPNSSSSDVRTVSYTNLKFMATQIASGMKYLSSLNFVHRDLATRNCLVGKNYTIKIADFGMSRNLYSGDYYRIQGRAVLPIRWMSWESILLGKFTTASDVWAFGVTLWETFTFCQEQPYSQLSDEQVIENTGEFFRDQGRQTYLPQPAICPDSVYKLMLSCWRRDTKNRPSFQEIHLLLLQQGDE
Procedure: as §1

PKA = PKA (Homo sapiens, UniProt P17612)
Procedure: as §1

TTBK2 = TTBK2 (Homo sapiens, UniProt Q6IQ55)
Procedure: as §1

JNK1 = JNK1 (Homo sapiens, UniProt P45983)
Procedure: as §1

TGFBR1 = TGFBR1 (Homo sapiens, UniProt P36897)
Procedure: as §1

LKB1 = LKB1 (Homo sapiens, UniProt Q15831)
Procedure: as §1

MARK4 = MARK4 (Homo sapiens, UniProt Q96L34)
Procedure: as §1

NEK6 = NEK6 (Homo sapiens, UniProt Q9HC98)
Procedure: as §1

PKCγ = PKCγ (Homo sapiens, UniProt P05129)
Procedure: as §1

PAK6 = PAK6 (Homo sapiens, UniProt Q9NQU5)
PAK6, sequence (Q9NQU5 whole entry): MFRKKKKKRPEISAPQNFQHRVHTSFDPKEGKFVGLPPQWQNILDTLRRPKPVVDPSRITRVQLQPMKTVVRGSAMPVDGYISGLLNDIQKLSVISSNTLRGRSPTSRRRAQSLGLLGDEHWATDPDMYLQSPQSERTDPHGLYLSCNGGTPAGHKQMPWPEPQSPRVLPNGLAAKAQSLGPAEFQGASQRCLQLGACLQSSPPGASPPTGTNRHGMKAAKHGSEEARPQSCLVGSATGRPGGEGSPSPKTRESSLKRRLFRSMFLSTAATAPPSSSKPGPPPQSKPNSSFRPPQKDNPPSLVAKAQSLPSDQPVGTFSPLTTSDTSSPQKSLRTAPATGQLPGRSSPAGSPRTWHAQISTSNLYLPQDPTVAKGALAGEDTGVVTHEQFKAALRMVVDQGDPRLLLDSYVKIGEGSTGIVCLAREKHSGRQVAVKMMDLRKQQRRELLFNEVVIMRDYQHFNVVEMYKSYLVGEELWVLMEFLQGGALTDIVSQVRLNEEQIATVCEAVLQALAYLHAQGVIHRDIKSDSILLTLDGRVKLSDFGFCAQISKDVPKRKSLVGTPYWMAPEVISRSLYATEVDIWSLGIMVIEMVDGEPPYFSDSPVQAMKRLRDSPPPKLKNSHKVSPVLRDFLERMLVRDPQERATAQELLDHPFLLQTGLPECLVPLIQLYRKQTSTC
Procedure: as §1

TESK1 = TESK1 (Homo sapiens, UniProt Q15569)
Procedure: as §1

BRSK1 = BRSK1 (Homo sapiens, UniProt Q8TDC3)
Procedure: as §1

AMPK = target: AMPK
Procedure: as §1

MAPKAP-K2 = MAPKAP-K2 (Homo sapiens, UniProt P49137)
Procedure: as §1

MST4 = MST4 (Homo sapiens, UniProt Q9P289)
Procedure: as §1

BTK = BTK (Homo sapiens, UniProt Q06187)
BTK, sequence (Q06187 whole entry): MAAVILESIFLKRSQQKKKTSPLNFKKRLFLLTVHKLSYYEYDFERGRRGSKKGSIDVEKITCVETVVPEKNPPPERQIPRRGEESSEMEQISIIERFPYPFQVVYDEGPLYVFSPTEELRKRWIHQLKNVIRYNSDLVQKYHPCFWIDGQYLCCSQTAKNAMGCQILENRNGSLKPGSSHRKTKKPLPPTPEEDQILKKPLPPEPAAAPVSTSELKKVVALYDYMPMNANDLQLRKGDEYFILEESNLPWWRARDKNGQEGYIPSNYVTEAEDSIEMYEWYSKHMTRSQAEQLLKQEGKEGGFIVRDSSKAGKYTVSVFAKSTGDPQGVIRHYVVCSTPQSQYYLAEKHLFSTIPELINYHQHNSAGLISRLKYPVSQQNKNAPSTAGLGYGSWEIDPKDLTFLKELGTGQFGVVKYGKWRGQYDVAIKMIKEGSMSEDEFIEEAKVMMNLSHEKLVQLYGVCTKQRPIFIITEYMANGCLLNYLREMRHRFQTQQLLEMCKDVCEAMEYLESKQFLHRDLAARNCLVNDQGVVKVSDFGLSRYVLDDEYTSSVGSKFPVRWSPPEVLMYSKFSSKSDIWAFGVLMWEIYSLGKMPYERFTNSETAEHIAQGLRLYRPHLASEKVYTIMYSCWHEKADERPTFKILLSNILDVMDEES
Procedure: as §1

YES1 = YES1 (Homo sapiens, UniProt P07947)
YES1, sequence (P07947 whole entry): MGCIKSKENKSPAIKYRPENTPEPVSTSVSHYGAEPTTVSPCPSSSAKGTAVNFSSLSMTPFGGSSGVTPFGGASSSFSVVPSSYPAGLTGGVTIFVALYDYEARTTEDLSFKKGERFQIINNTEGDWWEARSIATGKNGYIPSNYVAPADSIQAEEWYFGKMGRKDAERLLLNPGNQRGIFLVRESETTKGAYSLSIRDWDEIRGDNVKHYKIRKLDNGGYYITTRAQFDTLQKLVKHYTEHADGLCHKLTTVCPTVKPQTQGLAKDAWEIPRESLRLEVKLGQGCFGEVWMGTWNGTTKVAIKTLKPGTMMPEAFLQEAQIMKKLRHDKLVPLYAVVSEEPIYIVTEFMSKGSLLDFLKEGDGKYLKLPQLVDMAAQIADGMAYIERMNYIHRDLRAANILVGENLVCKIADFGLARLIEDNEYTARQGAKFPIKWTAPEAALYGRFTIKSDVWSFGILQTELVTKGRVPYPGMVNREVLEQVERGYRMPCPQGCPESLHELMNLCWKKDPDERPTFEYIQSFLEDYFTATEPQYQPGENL
Procedure: as §1

HIPK3 = HIPK3 (Homo sapiens, UniProt Q9H422)
Procedure: as §1

NEK2a = NEK2a (Homo sapiens, UniProt P51955)
Procedure: as §1

MAP4K5, sequence (Q9Y4K4 whole entry): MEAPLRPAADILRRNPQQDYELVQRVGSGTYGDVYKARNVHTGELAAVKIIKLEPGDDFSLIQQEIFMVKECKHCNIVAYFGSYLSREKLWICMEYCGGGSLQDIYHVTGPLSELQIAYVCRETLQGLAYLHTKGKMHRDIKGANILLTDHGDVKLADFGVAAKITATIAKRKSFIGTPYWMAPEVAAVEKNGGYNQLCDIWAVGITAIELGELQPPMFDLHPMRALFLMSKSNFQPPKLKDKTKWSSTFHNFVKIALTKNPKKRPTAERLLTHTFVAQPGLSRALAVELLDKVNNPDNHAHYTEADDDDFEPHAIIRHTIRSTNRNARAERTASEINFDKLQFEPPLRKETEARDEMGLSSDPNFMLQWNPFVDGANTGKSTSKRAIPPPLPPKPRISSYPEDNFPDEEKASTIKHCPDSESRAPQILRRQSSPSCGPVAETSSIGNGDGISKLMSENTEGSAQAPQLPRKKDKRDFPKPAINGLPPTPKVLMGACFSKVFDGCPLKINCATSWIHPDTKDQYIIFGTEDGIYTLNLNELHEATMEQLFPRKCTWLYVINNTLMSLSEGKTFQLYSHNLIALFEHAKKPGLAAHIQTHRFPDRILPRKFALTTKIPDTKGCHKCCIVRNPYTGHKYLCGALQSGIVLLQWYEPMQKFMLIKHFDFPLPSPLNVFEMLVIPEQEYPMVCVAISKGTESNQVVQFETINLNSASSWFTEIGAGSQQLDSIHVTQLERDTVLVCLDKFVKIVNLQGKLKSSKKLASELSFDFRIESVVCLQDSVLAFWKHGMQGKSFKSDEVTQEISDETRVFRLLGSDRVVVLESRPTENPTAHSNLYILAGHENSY

SMILES	remaining activity at 0.1 µM (MAP4K5) [%]	remaining activity at 0.1 µM (JAK3) [%]	remaining activity at 0.1 µM (EIF2AK3) [%]	remaining activity at 0.1 µM (ULK2) [%]	remaining activity at 0.1 µM (p38d MAPK) [%]	remaining activity at 0.1 µM (OSR1) [%]	remaining activity at 0.1 µM (p38g MAPK) [%]	remaining activity at 0.1 µM (ERK2) [%]	remaining activity at 0.1 µM (NUAK1) [%]	remaining activity at 0.1 µM (JNK3) [%]	remaining activity at 0.1 µM (GCK) [%]	remaining activity at 0.1 µM (MARK1) [%]	remaining activity at 0.1 µM (MAPKAP-K3) [%]	remaining activity at 0.1 µM (DDR2) [%]	remaining activity at 0.1 µM (PKA) [%]	remaining activity at 0.1 µM (TTBK2) [%]	remaining activity at 0.1 µM (JNK1) [%]	remaining activity at 0.1 µM (TGFBR1) [%]	remaining activity at 0.1 µM (LKB1) [%]	remaining activity at 0.1 µM (MARK4) [%]	also measured
CC1=C(C#N)C(c2ccc3c(c2)c(NC(=O)c2ccccc2C)nn3C)C(C#N)=C(C)N1 [BAY-974, N-[5-(3,5-dicyano-2,6-dimethyl-1,4-dihydropyridin-4-yl)-1-methylindazol-3-yl]-2-methylbenzamide]	89	106	113	60	108	109	95	110	60	104	65	93	81	89	103	91	106	113	104	96	remaining activity at 0.1 µM (NEK6): 85%; remaining activity at 0.1 µM (PKCγ): 115%; remaining activity at 0.1 µM (PAK6): 102%; remaining activity at 0.1 µM (TESK1): 88%; remaining activity at 0.1 µM (BRSK1): 96%; Kinase activity remaining (%) (AMPK; 0.1 μM): 98%; inhibition of kinase (AMPK; 0.1 μM): almost no effect; remaining activity at 0.1 µM (MAPKAP-K2): 84%; remaining activity at 0.1 µM (MST4): 98%; remaining activity at 0.1 µM (BTK): 94%; inhibition at 0.1 µM (YES1): 55 to 90%; remaining activity at 0.1 µM (YES1): ≤ 50%; remaining activity at 0.1 µM (HIPK3): 99%; remaining activity at 0.1 µM (NEK2a): 121%
CCc1ccccc1C(=O)Nc1n[nH]c2c(C)c(F)c(C3C(C#N)=C(C)N(C)C(C)=C3C#N)cc12 [BAY-3827, N-[5-(3,5-dicyano-1,2,6-trimethyl-4H-pyridin-4-yl)-6-fluoro-7-methyl-1H-indazol-3-yl]-2-ethylbenzamide]	97	90	98	96	99	111	90	116	68	88	105	82	101	80	94	93	94	86	97	98	remaining activity at 1 µM (NUAK1; 1 μM, cross-referenced with screen data of ref 37, read-out: activity remaining after treatment): ≤ 50%; remaining activity at 0.1 µM (NEK6): 102%; remaining activity at 0.1 µM (PKCγ): 94%; remaining activity at 0.1 µM (PAK6): 106%; remaining activity at 0.1 µM (TESK1): 70%; remaining activity at 0.1 µM (BRSK1): 77%; inhibition of kinase (AMPK; 0.1 μM): > 90%; activity remaining after treatment (AMPK; 1 μM, cross-referenced with screen data of ref 37): ≤ 50%; remaining activity at 0.1 µM (MAPKAP-K2): 82%; remaining activity at 0.1 µM (MST4): 64%; remaining activity at 0.1 µM (BTK): 85%; remaining activity at 0.1 µM (YES1): 98%; remaining activity at 0.1 µM (HIPK3): 77%; remaining activity at 0.1 µM (NEK2a): 122%
